Series [1] deals with irritant (TPA) skin inflammation. The experiment in a line: Intralesional injection in irritant TPA skin (ear) inflammation in mice. Type of series: in vivo. How it is done: Method: Intralesional injection into the ear was given once daily to the following groups: 1. TPA+intralesional control; 2. TPA+intralesional ACCS; 3. TPA+intralesional kenalog (10 mg/ml) (a potent intralesional corticosteroid); 4. ACCS intralesional injection alone; 5. Saline sham injections to the normal untreated ear. The endpoints for the study were ear thickness and ear weight at the end of the experiment. The thicker the ear and the increased weight gain correlates with the degree of inflammation.

The subject of series [2] is vascular permeability (histamine-induced). The experiment in a line: Miles assay, Evans Blue dye extravasation after intradermal injection (Example 5). Type of series: in vivo, rat. The settings on record: 1 μg histamine alone intradermally (inducer of vascular permeability).
Series [3] has the same test system. The experiment in a line: Evans Blue assay of vascular permeability, histamine with ACCS or CPM (Example 6). The settings on record: 198 μg total protein ACCS or 50 μg CPM. Type of series: in vivo, rats (Sprague-Dawley). How it is done: Method: […] The Evan's Blue dye binds to albumin and other plasma proteins present in the blood and circulates throughout the animal's entire vascular system. Increased vascular permeability results in extravasation from blood vessels and capillaries of the Evans Blue dye bound to plasma protein. […] After approximately 20 min, the animals were sacrificed, and an area of skin that included the entire injection site was removed with punch biopsy.

SMILES strings stand for the structures. Where a name gives a salt, the structure may show the parent alone.

As for `CC1(C)O[C@@H]2C[C@H]3[C@@H]4CCC5=CC(=O)C=C[C@]5(C)[C@@]4(F)[C@@H](O)C[C@]3(C)[C@]2(C(=O)CO)O1` [kenalog], the injection site finding entry in series [1] (intralesional injection 10 mg/ml into mouse ear) is listed as “induced a hematoma at the site of injection”. Moreover, the “inflammation induced by TPA (ear thickness)” value in series [1] (intralesional injection into the ear once daily, vs TPA+control) is “not a substantial difference in ear thickness”. Also, in series [1] (intralesional injection once daily, compared with TPA+control), the ear weight entry is given as “no difference in ear weight”.
On to `NCCc1c[nH]cn1` [histamine], for which, in series [2], the “OD 630 absorbance of extracted Evans Blue dye from tissue samples” value worked out at 0.495 OD units.
For `CN(C)CCC(c1ccc(Cl)cc1)c1ccccn1` (centres unmarked) [CPM, chlorpheniramine maleate], the “ABS 630 nm/μg tissue” value in series [3] (histamine dose 0.05 μg intradermal) turned out to be 0.07 ABS 630 nm/μg tissue; in series [3] (histamine dose 0.5 μg intradermal), 0.10 ABS 630 nm/μg tissue; in series [3] (histamine dose 1 μg intradermal), 0.10 ABS 630 nm/μg tissue; in series [3] (histamine dose 3 μg intradermal), 0.11 ABS 630 nm/μg tissue.
